Experimental findings from PubChem BioAssay (NCI) are described below.

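Five concentrations, 48 hours, 96-well plates. At the GI50, growth is halved. TGI is the concentration that stops growth completely.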

The first assay deals with SF-295 CNS. As to the kind of experiment: NCI anticancer screen, dose series, 48 h.
`CC(C)=CCC12Cc3ccc(O)cc3C(C(C)CN1)C2C` (stereo not drawn) had a TGI of over 100 µM.

As for `CC(=O)c1cccc(N(/C=C/C(=O)C(F)(F)F)CC(=O)c2ccc(Cl)cc2)c1`, the GI50 is over 100 µM and the TGI is over 100 µM.

For `O=c1oc2ccccc2c(O)c1C=NC(=S)c1ccncc1`, the TGI is over 100 µM.

As to `O=C(O)c1cc[c]([Hg][S]c2ncnc3nc[nH]c23)cc1`, the GI50 was 11.7 µM and the TGI was over 100 µM.

As for `Cc1ccc(C(=O)Cc2nc3c([nH]c2=O)c(C)nn3-c2ccccc2)c(C)c1`, the TGI is over 10 µM.

The molecule `Clc1ccccc1NN(Cc1ccccn1)c1ccccc1Cl` registered a TGI of 71.4 µM.

`CC(CO)[C@H]1OC(=O)C=C2[C@@]13O[C@@H]3[C@H]1OC(=O)[C@@]3(C)[C@H]4O[C@H]4C[C@@]2(C)[C@@H]13` (stereo partly drawn) registered a TGI of over 33.4 µM.

`CSc1nc2c(c(O)c(C)c(=O)n2C2OC(COC(C)=O)C(OC(C)=O)C(OC(C)=O)C2OC(C)=O)c(=O)n1C` (stereo not drawn) returned a TGI of over 100 µM.

Regarding `Cc1nc2c(n1CC(C)(C)C)C(=O)c1ccccc1C2=O`, the TGI was over 100 µM.

Consider `C/C(=N\O)c1ccc(Nc2cc(-n3nnc4ccccc43)nc3ccccc23)cc1`, for which the GI50 was 10.3 µM and the TGI was over 100 µM.

As for `C[C@]12CC[C@@H]3c4ccc(O)c([N+](=O)[O-])c4CC[C@H]3[C@@H]1CC[C@@H]2NS(=O)(=O)c1ccc(C(F)(F)F)cc1`, the GI50 is 2.96 µM and the TGI stood at 10.6 µM.

In turn, `Cc1c(C)c2cc3c(=O)ccoc3c(C)c2oc1=O` came in with a TGI of over 100 µM.

For another assay, the system named is TK-10 renal. As to the kind of experiment: NCI anticancer screen, dose series, 48 h.
On to `COc1cc(-c2csc(NC(=O)c3cc(C(F)(F)F)cc(C(F)(F)F)c3)n2)cc(OC)c1OC`, for which the GI50 was 2.49 µM and the TGI is over 100 µM.

With `CC(C)=CCC12Cc3ccc(O)cc3C(C(C)CN1)C2C` (stereo not drawn), the TGI was over 100 µM.

For `CC(=O)c1cccc(N(/C=C/C(=O)C(F)(F)F)CC(=O)c2ccc(Cl)cc2)c1`, the GI50 is over 100 µM and the TGI is over 100 µM.

Regarding `O=c1oc2ccccc2c(O)c1C=NC(=S)c1ccncc1`, the TGI was over 100 µM.

In the case of `O=C(O)c1cc[c]([Hg][S]c2ncnc3nc[nH]c23)cc1`, the GI50 is 2.59 µM and the TGI was 14.3 µM.

`Cc1ccc(C(=O)Cc2nc3c([nH]c2=O)c(C)nn3-c2ccccc2)c(C)c1` had a TGI of over 10 µM.

As for `Cc1cc2c(C(C)C)c(O)c(O)c(C=Nc3cc(C(F)(F)F)ccc3Cl)c2c(O)c1-c1c(C)cc2c(C(C)C)c(O)c(O)c(C=Nc3cc(C(F)(F)F)ccc3Cl)c2c1O`, the TGI was over 100 µM.

Molecule `CC(CO)[C@H]1OC(=O)C=C2[C@@]13O[C@@H]3[C@H]1OC(=O)[C@@]3(C)[C@H]4O[C@H]4C[C@@]2(C)[C@@H]13` (stereo partly drawn) showed a TGI of over 28.2 µM.

`CSc1nc2c(c(O)c(C)c(=O)n2C2OC(COC(C)=O)C(OC(C)=O)C(OC(C)=O)C2OC(C)=O)c(=O)n1C` (stereo not drawn) yielded a TGI of over 100 µM.

`Cc1nc2c(n1CC(C)(C)C)C(=O)c1ccccc1C2=O` showed a TGI of over 100 µM.

Consider `C/C(=N\O)c1ccc(Nc2cc(-n3nnc4ccccc43)nc3ccccc23)cc1`, for which the GI50 is 3.14 µM and the TGI stood at 14.2 µM.

Regarding `C[C@]12CC[C@@H]3c4ccc(O)c([N+](=O)[O-])c4CC[C@H]3[C@@H]1CC[C@@H]2NS(=O)(=O)c1ccc(C(F)(F)F)cc1`, the GI50 was 2.77 µM and the TGI turned out to be 7.26 µM.

On to `COC(=O)C1=C(OC(=O)c2ccc(Cl)cc2)C(C(=O)OC)[C@@]2(O)[C@@H](C(=O)OC)C(c3ccccc3C(F)(F)F)C[C@@H]1[C@@H]2C(=O)OC` (stereo partly drawn), for which the GI50 is 33 µM and the TGI stood at 78.8 µM.

`Cc1c(C)c2cc3c(=O)ccoc3c(C)c2oc1=O` showed a TGI of over 100 µM.

For a further assay, the system named is COLO 205 colon. As to the kind of experiment: NCI anticancer screen, dose series, 48 h.
As to `COc1cc(-c2csc(NC(=O)c3cc(C(F)(F)F)cc(C(F)(F)F)c3)n2)cc(OC)c1OC`, the GI50 is 2.63 µM and the TGI was 7.29 µM.

Consider `CC(C)=CCC12Cc3ccc(O)cc3C(C(C)CN1)C2C` (stereo not drawn), for which the TGI is over 100 µM.

Regarding `CC(=O)c1cccc(N(/C=C/C(=O)C(F)(F)F)CC(=O)c2ccc(Cl)cc2)c1`, the GI50 is over 100 µM and the TGI is over 100 µM.

In turn, `O=c1oc2ccccc2c(O)c1C=NC(=S)c1ccncc1` registered a TGI of over 100 µM.

For the molecule `O=C(O)c1cc[c]([Hg][S]c2ncnc3nc[nH]c23)cc1`, the GI50 is 12.4 µM and the TGI turned out to be 26.9 µM.

Turning to `Cc1ccc(C(=O)Cc2nc3c([nH]c2=O)c(C)nn3-c2ccccc2)c(C)c1`, the TGI was over 10 µM.

As to `Clc1ccccc1NN(Cc1ccccn1)c1ccccc1Cl`, the TGI turned out to be 31.3 µM.

On to `Cc1cc2c(C(C)C)c(O)c(O)c(C=Nc3cc(C(F)(F)F)ccc3Cl)c2c(O)c1-c1c(C)cc2c(C(C)C)c(O)c(O)c(C=Nc3cc(C(F)(F)F)ccc3Cl)c2c1O`, for which the TGI was found to be 90.5 µM.

Consider `CSc1nc2c(c(O)c(C)c(=O)n2C2OC(COC(C)=O)C(OC(C)=O)C(OC(C)=O)C2OC(C)=O)c(=O)n1C` (stereo not drawn), for which the TGI was over 100 µM.

As for `Cc1nc2c(n1CC(C)(C)C)C(=O)c1ccccc1C2=O`, the TGI is over 100 µM.

On to `C/C(=N\O)c1ccc(Nc2cc(-n3nnc4ccccc43)nc3ccccc23)cc1`, for which the GI50 is 9.47 µM and the TGI was over 39.2 µM.

Take `C[C@]12CC[C@@H]3c4ccc(O)c([N+](=O)[O-])c4CC[C@H]3[C@@H]1CC[C@@H]2NS(=O)(=O)c1ccc(C(F)(F)F)cc1`: the GI50 is 3.05 µM and the TGI amounted to 9.4 µM.

Take `COC(=O)C1=C(OC(=O)c2ccc(Cl)cc2)C(C(=O)OC)[C@@]2(O)[C@@H](C(=O)OC)C(c3ccccc3C(F)(F)F)C[C@@H]1[C@@H]2C(=O)OC` (stereo partly drawn): the GI50 was 3.31 µM and the TGI was over 100 µM.

`Cc1c(C)c2cc3c(=O)ccoc3c(C)c2oc1=O` returned a TGI of over 100 µM.

Another assay relates to T-47D breast. Description: NCI anticancer screen, dose series, 48 h.
Regarding `COc1cc(-c2csc(NC(=O)c3cc(C(F)(F)F)cc(C(F)(F)F)c3)n2)cc(OC)c1OC`, the GI50 is 1.84 µM and the TGI turned out to be 6.29 µM.

`CC(C)=CCC12Cc3ccc(O)cc3C(C(C)CN1)C2C` (stereo not drawn) registered a TGI of over 100 µM.

For the molecule `CC(=O)c1cccc(N(/C=C/C(=O)C(F)(F)F)CC(=O)c2ccc(Cl)cc2)c1`, the GI50 was over 100 µM and the TGI was over 100 µM.

As to `O=c1oc2ccccc2c(O)c1C=NC(=S)c1ccncc1`, the TGI is over 100 µM.

As to `O=C(O)c1cc[c]([Hg][S]c2ncnc3nc[nH]c23)cc1`, the GI50 is 4.52 µM and the TGI was 36.7 µM.

`Cc1ccc(C(=O)Cc2nc3c([nH]c2=O)c(C)nn3-c2ccccc2)c(C)c1`: the TGI was over 10 µM.

`Clc1ccccc1NN(Cc1ccccn1)c1ccccc1Cl` showed a TGI of over 100 µM.

With `Cc1cc2c(C(C)C)c(O)c(O)c(C=Nc3cc(C(F)(F)F)ccc3Cl)c2c(O)c1-c1c(C)cc2c(C(C)C)c(O)c(O)c(C=Nc3cc(C(F)(F)F)ccc3Cl)c2c1O`, the TGI was over 100 µM.

Regarding `CC(CO)[C@H]1OC(=O)C=C2[C@@]13O[C@@H]3[C@H]1OC(=O)[C@@]3(C)[C@H]4O[C@H]4C[C@@]2(C)[C@@H]13` (stereo partly drawn), the TGI is over 46.1 µM.

As for `C/C(=N\O)c1ccc(Nc2cc(-n3nnc4ccccc43)nc3ccccc23)cc1`, the GI50 is 8.23 µM and the TGI is over 34.7 µM.

Turning to `C[C@]12CC[C@@H]3c4ccc(O)c([N+](=O)[O-])c4CC[C@H]3[C@@H]1CC[C@@H]2NS(=O)(=O)c1ccc(C(F)(F)F)cc1`, the GI50 was 2.45 µM and the TGI turned out to be 7.22 µM.

Turning to `COC(=O)C1=C(OC(=O)c2ccc(Cl)cc2)C(C(=O)OC)[C@@]2(O)[C@@H](C(=O)OC)C(c3ccccc3C(F)(F)F)C[C@@H]1[C@@H]2C(=O)OC` (stereo partly drawn), the GI50 was 4.82 µM and the TGI is over 100 µM.

Another assay concerns NCI-H460 lung. Description: NCI anticancer screen, dose series, 48 h.
Take `COc1cc(-c2csc(NC(=O)c3cc(C(F)(F)F)cc(C(F)(F)F)c3)n2)cc(OC)c1OC`: the GI50 was 2.97 µM and the TGI was over 100 µM.

`CC(C)=CCC12Cc3ccc(O)cc3C(C(C)CN1)C2C` (stereo not drawn): the TGI is over 100 µM.

Regarding `CC(=O)c1cccc(N(/C=C/C(=O)C(F)(F)F)CC(=O)c2ccc(Cl)cc2)c1`, the GI50 was over 100 µM and the TGI is over 100 µM.

`O=c1oc2ccccc2c(O)c1C=NC(=S)c1ccncc1` returned a TGI of over 100 µM.

Take `O=C(O)c1cc[c]([Hg][S]c2ncnc3nc[nH]c23)cc1`: the GI50 is 13.1 µM and the TGI was 28.5 µM.

For `Cc1cc2c(C(C)C)c(O)c(O)c(C=Nc3cc(C(F)(F)F)ccc3Cl)c2c(O)c1-c1c(C)cc2c(C(C)C)c(O)c(O)c(C=Nc3cc(C(F)(F)F)ccc3Cl)c2c1O`, the TGI is over 100 µM.

In turn, `CC(CO)[C@H]1OC(=O)C=C2[C@@]13O[C@@H]3[C@H]1OC(=O)[C@@]3(C)[C@H]4O[C@H]4C[C@@]2(C)[C@@H]13` (stereo partly drawn) registered a TGI of over 24.4 µM.

On to `CSc1nc2c(c(O)c(C)c(=O)n2C2OC(COC(C)=O)C(OC(C)=O)C(OC(C)=O)C2OC(C)=O)c(=O)n1C` (stereo not drawn), for which the TGI is over 100 µM.

On to `Cc1nc2c(n1CC(C)(C)C)C(=O)c1ccccc1C2=O`, for which the TGI was over 100 µM.

For `C/C(=N\O)c1ccc(Nc2cc(-n3nnc4ccccc43)nc3ccccc23)cc1`, the GI50 was 4.08 µM and the TGI is over 25.4 µM.

Take `C[C@]12CC[C@@H]3c4ccc(O)c([N+](=O)[O-])c4CC[C@H]3[C@@H]1CC[C@@H]2NS(=O)(=O)c1ccc(C(F)(F)F)cc1`: the GI50 was 2.11 µM and the TGI is 4.83 µM.

`COC(=O)C1=C(OC(=O)c2ccc(Cl)cc2)C(C(=O)OC)[C@@]2(O)[C@@H](C(=O)OC)C(c3ccccc3C(F)(F)F)C[C@@H]1[C@@H]2C(=O)OC` (stereo partly drawn): the GI50 was 6.53 µM and the TGI is 77.1 µM.

`Cc1c(C)c2cc3c(=O)ccoc3c(C)c2oc1=O`: the TGI is over 100 µM.
